Test results as given in patent publication US4748161A, “Triterpenyl esters of organic acids and hypolipidemic agents composed of them” (Amano Pharmaceutical Co., Ltd., priority 1984, dated 1988).
Read-outs that look alike come from different tables or passages of the source.

How the values were obtained:
[1] = system: serum lipids and serum lipid hydroperoxide; test: Pharmacological test method B for anti-hyperlipidemic activity (serum lipids, 4 weeks feeding); assay type: in vivo, male Wistar strain rats; design: AI Diff.: unit not given here; details: for AI [(TC - HDL-C)/(HDL-C)] / HDL-C in serum / LPO in serum / PL in serum / TC in serum / TG in serum: 1% in hyperlipidemic diet, 4 weeks; for change in vivo at 1 % in diet: Rattus norvegicus, po, 672 h; for change in vivo at 1 % in diet / AI Diff. / HDL-C Diff. / LPO Diff. / PL Diff. / TC % of diff. / TC Diff. / TG Diff.: versus control group
Description: Pharmacological test method B for anti-hyperlipidemic acitivity (the term "method B" was used in the present specification)
(§1) Male Wistar strain rats (100±1 g, each 8 rats were formed into a group except that the control group fed with a hyperlipidemic diet was formed of 16 rats) were used as test animals. A powdery diet (CE-2, supplied by Clea Japan, Inc.) was used as ordinary diet. The hyperlipidemic diet was prepared by fortifying the ordinary diet with cholesterol (1%) and cholic acid (0.5%). Each test compound (1%) for administration was admixed with the hyperlipidemic diet. Each two rats were kept in a cage and given the prescribed diet and water ad libitum. Thus the rats were fed for 4 weeks at a constant temperature of 23±1° C. and a constant R.H. of 55±5%. Finally, the rats were fasted from food except water for 16 hours (from 4 p.m. of the 28th test day to 8 a.m. of the 29th test day), and under anesthesia with pentbarbital sodium (tradename: Nembutal), blood was taken from each rat through the descending abdominal arota. Then, TC, HDL-C, TG, PL, and LPO in the serum were measured in the following manner.
A TC kit-K (supplied by Nippon Shoji Kaisha, Ltd.) was used. The principle of this determination is as follows: The ester of cholesterol in the serum is hydrolyzed with cholesterol-ester hydrolase into free cholesterol and fatty acids. All the free cholesterol is oxidized with cholesterol oxydase to form Δ^4 -cholestenone and hydrogen peroxide. Phenol and 4-aminoantipyrin are oxidatively condensed together by the formed hydrogen peroxide and peroxydase. The produced red quinone coloring matter is measured by colorimetry for absorbance at 500 nm using a spectrophotometer, thereby determining the TC:
The color-developing liquid (3.0 ml) is well mixed with the sample serum (0.02 ml). The mixture once heated at 37° C. for 15 minutes, is measured for absorbance at 500 nm with a spectrophotometer. The found absorbance is denoted by EA. On the other hand, the color-developing liquid (3.0 ml) is well mixed with the standard solution. The mixture is treated and measured for absorbance at 500 nm in the same manner as the above. This found absorbance is denoted by ES. Both EA and ES are determined with reference to the value of the blank test conducted using the color-developing liquid (3.0 ml) alone. [formula]
An HDL-C kit-N (supplied by Nippon Shoji Kaisha, Ltd.) was used. […] (VLDL) and lo density lipoprotein (LDL) in the serum is precipitated by the action of heparin. The precipitate is separated by centrifugation. High density lipoprotein (HDL) is dissolved in the separated supernatant. Esters of cholesterol in this fraction is hydrolyzed with cholesterol-ester hydrolase into free cholesterol and fatty acids. All the free cholesterol is oxidized with cholesterol oxydase to form Δ^4 -cholestenone and hydrogen peroxide. Phenol and 4-aminoantipyrine are oxidatively condensed together by the formed hydrogen peroxide and peroxydase. The produced red quinone coloring matter is measured by colorimetry for absorbance at 500 nm using a spectrophotometer, thereby determining the HDL-C.
A PL kit-K (supplied by Nippon Shoji Kaisha, Ltd.) was used for the determination. Lecithin, sphingomyelin, and lysolecithin are decomposed by phospholipase D into choline and phosphatidic acid, N-acylsphingosyl phosphate, or lysophosphatidic acid, respectively. The resulting choline is quantitatively decomposed by choline oxydase into hydrogen peroxide and betaine. With this hydrogen peroxide, and aid of peroxydase, phenol and 4-aminoantipyrin are condensed into red quinone pigment, then the absorbance at 500 nm of which is measured with a spectrophotometer, thereby determining the PL. […]

[2] = Body weight of rats in method B; design: species or system male Wistar strain rats; details: rat, in vivo
Description: as §1

Compound	AI [(TC - HDL-C)/(HDL-C)] [1]	HDL-C in serum [1] [mg/dL]	LPO in serum [1] [nmol/mL]	PL in serum [1] [mg/dL]	TC in serum [1] [mg/dL]	TG in serum [1] [mg/dL]	change in vivo at 1 % in diet ([1]; read-out: AI % of diff.) [%]	change in vivo at 1 % in diet ([1]; read-out: HDL-C % of diff.) [%]	change in vivo at 1 % in diet ([1]; read-out: LPO % of diff.) [%]	change in vivo at 1 % in diet ([1]; read-out: PL % of diff.) [%]	change in vivo at 1 % in diet ([1]; read-out: TG % of diff.) [%]	AI Diff. [1]	HDL-C Diff. [1]	LPO Diff. [1] [nmol/mL]	Body weight during feed period, 1st day [2] [g]	Body weight during feed period, 8th day [2] [g]	Body weight during feed period, 15th day [2] [g]	Body weight during feed period, 22nd day [2] [g]	Body weight during feed period, 28th day [2] [g]	Body weight just before blood sampling, 29th day [2] [g]	further results
CCC(=Cc1ccc(O)cc1)C(=O)OC1CCC23CC24CCC2(C)C(C(C)CCC=C(C)C)CCC2(C)C4CCC3C1(C)C (stereo not drawn) [Example 130, cycloartenyl ester of 4-hydroxy-α-ethylcinnamic acid]	8.586	21.0	2.07	107.2	201.3	53.4	-60.5	55.6	-26.6	-23.5	-5.5	-13.17	+7.5 mg/dl	-0.75	105 ± 3.3	144 ± 9.3	194 ± 18.1	245 ± 15.7	271 ± 18.0	258 ± 20.2	PL Diff. [1]: -32.9 mg/dL; TC % of diff. [1]: -34.5%; TC Diff. [1]: -106.0 mg/dL; TG Diff. [1]: -3.1 mg/dL
CC(C)=CCCC(C)C1CCC2(C)C3CCC4C(C)(C)C(OC(=O)C(C)=Cc5ccc(N)cc5)CCC45CC35CCC12C (stereo not drawn) [Example 205, Cycloartenyl ester of p-amino-α-methylcinnamic acid]	4.144	37.4	2.02	113.1	192.4	60.3	–	–	–	–	–	–	–	–	105 ± 3.7	142 ± 9.8	188 ± 13.2	238 ± 19.8	267 ± 20.4	256 ± 19.2	–
COc1cc(C=C(C)C(=O)OC2CCC34CC35CCC3(C)C(C(C)CCC=C(C)C)CCC3(C)C5CCC4C2(C)C)ccc1O (stereo not drawn) [Example 114, cycloartenyl ester of 4-hydroxy-3-methoxy-α-methylcinnamic acid]	4.711	24.2	2.04	96.7	138.2	39.0	-78.4	79.3	-27.7	-31	-31	-17.05	+10.7 mg/dl	-0.78	105 ± 3.3	145 ± 9.5	194 ± 18.0	247 ± 16.6	277 ± 14.9	265 ± 14.5	PL Diff. [1]: -43.4 mg/dL; TC % of diff. [1]: -55.0%; TC Diff. [1]: -169.1 mg/dL; TG Diff. [1]: -17.5 mg/dL
COc1cc(C=CC(=O)OC2CCC34CC35CCC3(C)C(C(C)CCC=C(C)C)CCC3(C)C5CCC4C2(C)C)ccc1N (stereo not shown) [Example 177, Cycloartenyl ester of 4-amino-3-methoxycinnamic acid]	6.554	32.5	2.29	125.8	245.5	63.1	–	–	–	–	–	–	–	–	104 ± 3.9	142 ± 9.6	187 ± 12.8	238 ± 21.2	267 ± 25.2	256 ± 27.1	–
COc1cc(C=C(C)C(=O)OC2CCC34CC35CCC3(C)C(C(C)CCC(C)=C(C)C)CCC3(C)C5CCC4C2(C)C)ccc1O (stereo not drawn) [Example 116, cyclobranyl ester of 4-hydroxy-3-methoxy-α-methylcinnamic acid]	1.282	61.4	2.11	97.4	140.1	54.0	-94.1	355	-25.2	-30.5	-10.8	-20.48	+47.9 mg/dl	-0.71	106 ± 5.9	146 ± 10.0	193 ± 17.5	244 ± 15.8	273 ± 20.4	260 ± 19.0	PL Diff. [1]: -42.7 mg/dL; TC % of diff. [1]: -54.4%; TC Diff. [1]: -167.2 mg/dL; TG Diff. [1]: -6.1 mg/dL; HDL-C rise compared with normal diet group ([1]; versus normal diet group): remarkable rises
C=C(CCC(C)C1CCC2(C)C3CCC4C(C)(C)C(OC(=O)C(C)=Cc5ccc(N)c(OC)c5)CCC45CC35CCC12C)C(C)C (stereo not drawn) [Example 191, 24-Methylenecycloartanyl ester of 4-amino-3-methoxy-α-methylcinnamic acid]	5.634	28.4	2.08	117.3	188.4	60.4	–	–	–	–	–	–	–	–	104 ± 3.7	142 ± 9.6	188 ± 12.9	239 ± 14.9	268 ± 21.7	257 ± 20.6	–
C=C(CCC(C)C1CCC2(C)C3CCC4C(C)(C)C(OC(=O)C(C)=Cc5cc(N)ccc5OCCC)CCC45CC35CCC12C)C(C)C (stereo not drawn) [Example 197, 24-Methylenecycloartanyl ester of 5-amino-2-propoxy-α-methylcinnamic acid]	7.177	27.1	2.05	115.5	221.6	61.2	–	–	–	–	–	–	–	–	104 ± 3.4	142 ± 8.4	188 ± 13.6	239 ± 16.2	268 ± 20.8	257 ± 20.4	–
CC(=Cc1cccc(N)c1)C(=O)OC1CCC23CC24CCC2(C)C(C(C)CCC(C)=C(C)C)CCC2(C)C4CCC3C1(C)C (stereo not drawn) [Example 212, Cyclobranyl ester of m-amino-α-methylcinnamic acid]	4.242	37.2	2.01	112.9	195.0	59.7	–	–	–	–	–	–	–	–	104 ± 3.3	143 ± 9.2	190 ± 18.6	239 ± 15.8	268 ± 21.4	257 ± 19.0	–
